target: T1, human GPR52 (Homo sapiens, UniProt Q9Y2T5); assay: Increase of intracellular cAMP concentration in human GPR52-expressing CHO cell (AlphaScreen cAMP assay); assay type: cell-based; settings: 1 μM test compound, human GPR52-expressing CHO(dhfr-) cells, 37° C. for 30 min; intracellular cAMP with 1 μM Reference Example 124 = 100%, DMSO = 0%
T1 construct: expressed in transfected cells; host or cells: CHO(dhfr-) cells
Experimental: Increase of Intracellular cAMP Concentration in Human GPR52-Expressing CHO Cell
Using OptiPlate-384 (PerkinElmer Inc.), 1×10^4 human GPR52-expressing CHO(dhfr-) cells were incubated together with 1 μM of a test compound in an assay buffer (30 μL, HBSS (containing Ca^2+ and Mg^2+), 0.5% BSA, 100 μm IBMX, 100 μm Ro20-1724, 5 mM HEPES (pH 7.55)) at 37° C. for 30 min. Thereafter, according to the protocol of AlphaScreen cAMP Assay Kit (PerkinElmer Inc.), the intracellular cAMP concentration was measured by EnVision (PerkinElmer Inc.). The GPR52 agonist activity was calculated, assuming the intracellular cAMP concentration in the presence of 1 μM 3-(6-(2-(3,4-dimethoxyphenyl)ethoxy)pyridin-2-yl)-N-(2-pyrrolidin-1-ylethyl)benzamide (Reference Example 124) to be 100% and assuming the intracellular cAMP concentration when DMSO was added instead of the test compound to be 0%.

T1 sequence (Q9Y2T5 whole entry): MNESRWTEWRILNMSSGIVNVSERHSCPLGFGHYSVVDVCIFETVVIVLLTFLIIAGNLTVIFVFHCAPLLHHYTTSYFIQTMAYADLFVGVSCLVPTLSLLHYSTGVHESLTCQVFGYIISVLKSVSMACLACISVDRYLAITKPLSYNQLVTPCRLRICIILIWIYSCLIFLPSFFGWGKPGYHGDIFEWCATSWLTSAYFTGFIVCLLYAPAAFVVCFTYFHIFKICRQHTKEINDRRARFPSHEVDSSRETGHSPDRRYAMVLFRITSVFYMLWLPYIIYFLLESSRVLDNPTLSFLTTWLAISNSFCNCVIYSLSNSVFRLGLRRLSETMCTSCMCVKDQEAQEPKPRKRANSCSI

Row | SMILES | GPR52 agonist activity (%)
1 | O=C(NCCO)c1cccc(-c2ccc3c(c2)C(c2ccc(Cl)cc2Cl)CCO3)c1 (stereo not drawn) [Example 90, 3-[4-(2,4-dichlorophenyl)-3,4-dihydro-2H-chromen-6-yl]-N-(2-hydroxyethyl)benzamide] | 65
2 | N#CCCNC(=O)c1cccc(-c2ccc3c(c2)N(c2ccc(Cl)cc2Cl)CCO3)c1 [Example 47, N-(2-cyanoethyl)-3-[4-(2,4-dichlorophenyl)-3,4-dihydro-2H-1,4-benzoxazin-6-yl]benzamide] | 63
3 | O=C(NCCO)c1cccc(-c2ccc3c(c2)C(Nc2ccc(Cl)cc2Cl)CO3)c1 (stereo not drawn) [Example 87, 3-[3-[(2,4-dichlorophenyl)amino]-2,3-dihydro-1-benzofuran-5-yl]-N-(2-hydroxyethyl)benzamide] | 59
4 | COc1ccc(CCn2cnc3ccc(-c4cccc(C(=O)NCCN5CCCC5)c4)nc32)cc1OC [Example 45, 3-[3-[2-(3,4-dimethoxyphenyl)ethyl]-3H-imidazo[4,5-b]pyridin-5-yl]-N-(2-pyrrolidin-1-ylethyl)benzamide] | 79
5 | N#CCCNC(=O)c1cccc(-c2ccc3c(n2)N(Cc2ccc(Cl)cc2Cl)CC3)c1 [Example 30, N-(2-cyanoethyl)-3-[1-(2,4-dichlorobenzyl)-2,3-dihydro-1H-pyrrolo[2,3-b]pyridin-6-yl]benzamide] | 72
6 | N#CCCNC(=O)c1cccc(-c2ccc3c(n2)N(c2ccc(Cl)cc2Cl)CC3)c1 [Example 34, N-(2-cyanoethyl)-3-[1-(2,4-dichlorophenyl)-2,3-dihydro-1H-pyrrolo[2,3-b]pyridin-6-yl]benzamide] | 74
7 | O=C(NCCO)c1cccc(-c2ccc3c(c2)C(c2ccc(Cl)cc2Cl)CC3)c1 (stereo not drawn) [Example 64, 3-[3-(2,4-dichlorophenyl)-2,3-dihydro-1H-inden-5-yl]-N-(2-hydroxyethyl)benzamide] | 84
8 | O=C(NCCO)c1cccc(-c2ccc3c(c2)N(c2cccc(Cl)c2Cl)CC3)c1 [Example 11, 3-[1-(2,3-dichlorophenyl)-2,3-dihydro-1H-indol-6-yl]-N-(2-hydroxyethyl)benzamide] | 74
9 | CS(=O)(=O)CCNC(=O)c1cccc(-c2ccc3c(c2)C(Oc2ccc(Cl)cc2Cl)CC3)c1 (stereo not drawn) [Example 77, 3-[3-(2,4-dichlorophenoxy)-2,3-dihydro-1H-inden-5-yl]-N-[2-(methylsulfonyl)ethyl]benzamide] | 73
10 | O=C(NCCO)c1cccc(-c2ccc3ccn(-c4ccc(Cl)cc4Cl)c3n2)c1 [Example 33, 3-[1-(2,4-dichlorophenyl)-1H-pyrrolo[2,3-b]pyridin-6-yl]-N-(2-hydroxyethyl)benzamide] | 61
11 | N#CCCNC(=O)c1cccc(-c2ccc3c(c2)N(c2ccc(Cl)cc2Cl)CC3)c1 [Example 2, N-(2-cyanoethyl)-3-[1-(2,4-dichlorophenyl)-2,3-dihydro-1H-indol-6-yl]benzamide] | 69
12 | O=C(NCCO)c1cccc(-c2ccc3c(n2)N(c2ccc(Cl)cc2Cl)CC3)c1 [Example 35, 3-[1-(2,4-dichlorophenyl)-2,3-dihydro-1H-pyrrolo[2,3-b]pyridin-6-yl]-N-(2-hydroxyethyl)benzamide] | 81
13 | CN(C)CCNC(=O)c1cccc(-c2ccc3c(c2)N(Cc2ccc(Cl)cc2Cl)CC3)c1 [Example 12, 3-[1-(2,4-dichlorobenzyl)-2,3-dihydro-1H-indol-6-yl]-N-[2-(dimethylamino)ethyl]benzamide] | 89
14 | O=C(NCCO)c1cccc(-c2ccc3ccn(Cc4ccc(Cl)cc4Cl)c3n2)c1 [Example 28, 3-[1-(2,4-dichlorobenzyl)-1H-pyrrolo[2,3-b]pyridin-6-yl]-N-(2-hydroxyethyl)benzamide] | 64
15 | O=C(NCCO)c1cccc(-c2ccc3c(c2)N(c2ccc(Cl)cc2Cl)CC3)c1 [Example 3, 3-[1-(2,4-dichlorophenyl)-2,3-dihydro-1H-indol-6-yl]-N-(2-hydroxyethyl)benzamide] | 71
16 | CS(=O)(=O)CCNC(=O)c1cccc(-c2ccc3c(c2)C(c2ccc(Cl)cc2Cl)CC3)c1 (stereo not drawn) [Example 67, 3-[3-(2,4-dichlorophenyl)-2,3-dihydro-1H-inden-5-yl]-N-[2-(methylsulfonyl)ethyl]benzamide] | 73
17 | O=C(NCCO)c1cccc(-c2ccc3c(c2)N(c2cc(Cl)ccc2Cl)CC3)c1 [Example 5, 3-[1-(2,5-dichlorophenyl)-2,3-dihydro-1H-indol-6-yl]-N-(2-hydroxyethyl)benzamide] | 75

Row | SMILES | GPR52 agonist activity (%)
18 | C[S+]([O-])CCNC(=O)c1cccc(-c2ccc3c(c2)C(c2ccc(Cl)cc2Cl)CC3)c1 (stereo not drawn) [Example 66, 3-[3-(2,4-dichlorophenyl)-2,3-dihydro-1H-inden-5-yl]-N-[2-(methylsulfinyl)ethyl]benzamide] | 88
19 | N#CCCNC(=O)c1cccc(-c2ccc3c(c2)C(Oc2ccc(Cl)cc2Cl)CC3)c1 (stereo not drawn) [Example 73, N-(2-cyanoethyl)-3-[3-(2,4-dichlorophenoxy)-2,3-dihydro-1H-inden-5-yl]benzamide] | 73
20 | CN(C)CCNC(=O)c1cccc(-c2ccc3c(c2)N(c2ccc(Cl)cc2Cl)CC3)c1 [Example 1, 3-[1-(2,4-dichlorophenyl)-2,3-dihydro-1H-indol-6-yl]-N-[2-(dimethylamino)ethyl]benzamide] | 87
21 | O=C(NCCO)c1cccc(-c2ccc3c(c2)C(Oc2ccc(Cl)cc2Cl)CC3)c1 (stereo not drawn) [Example 74, 3-[3-(2,4-dichlorophenoxy)-2,3-dihydro-1H-inden-5-yl]-N-(2-hydroxyethyl)benzamide] | 76
22 | O=C(NC1CC1)c1cccc(-c2ccc3c(c2)C(Oc2ccc(Cl)cc2Cl)CC3)c1 (stereo not drawn) [Example 78, N-cyclopropyl-3-[3-(2,4-dichlorophenoxy)-2,3-dihydro-1H-inden-5-yl]benzamide] | 59
23 | N#CCCNC(=O)c1cccc(-c2ccc3c(c2)N(c2ccc(Cl)c(Cl)c2)CC3)c1 [Example 6, N-(2-cyanoethyl)-3-[1-(3,4-dichlorophenyl)-2,3-dihydro-1H-indol-6-yl]benzamide] | 59
24 | O=C(NC(CO)CO)c1cccc(-c2ccc3c(c2)C(c2ccc(Cl)cc2Cl)CC3)c1 (stereo not drawn) [Example 65, 3-[3-(2,4-dichlorophenyl)-2,3-dihydro-1H-inden-5-yl]-N-[2-hydroxy-1-(hydroxymethyl)ethyl]benzamide] | 91
25 | O=C(NCCO)c1cccc(-c2ccc3c(c2)N(c2ccc(Cl)c(Cl)c2)CC3)c1 [Example 7, 3-[1-(3,4-dichlorophenyl)-2,3-dihydro-1H-indol-6-yl]-N-(2-hydroxyethyl)benzamide] | 67
26 | CN(C)CCNC(=O)c1cccc(-c2ccc3c(c2)C(c2cc(Cl)ccc2Cl)CC3)c1 (stereo not drawn) [Example 51, 3-[3-(2,5-dichlorophenyl)-2,3-dihydro-1H-inden-5-yl]-N-[2-(dimethylamino)ethyl]benzamide] | 89
27 | O=C(NCCO)c1cccc(-c2ccc3c(n2)N(Cc2ccc(Cl)cc2Cl)CC3)c1 [Example 29, 3-[1-(2,4-dichlorobenzyl)-2,3-dihydro-1H-pyrrolo[2,3-b]pyridin-6-yl]-N-(2-hydroxyethyl)benzamide] | 76
28 | O=C(NCCCO)c1cccc(-c2ccc3c(n2)N(Cc2ccc(Cl)cc2Cl)CC3)c1 [Example 31, 3-[1-(2,4-dichlorobenzyl)-2,3-dihydro-1H-pyrrolo[2,3-b]pyridin-6-yl]-N-(3-hydroxypropyl)benzamide] | 62
29 | N#CCCNC(=O)c1cccc(-c2ccc3c(c2)N(c2cc(Cl)ccc2Cl)CC3)c1 [Example 4, N-(2-cyanoethyl)-3-[1-(2,5-dichlorophenyl)-2,3-dihydro-1H-indol-6-yl]benzamide] | 75
30 | N#CCCNC(=O)c1cccc(-c2ccc3c(c2)N(Cc2cc(Cl)cc(Cl)c2)CC3)c1 [Example 15, N-(2-cyanoethyl)-3-[1-(3,5-dichlorobenzyl)-2,3-dihydro-1H-indol-6-yl]benzamide] | 77
31 | C[S+]([O-])CCNC(=O)c1cccc(-c2ccc3c(c2)C(Oc2ccc(Cl)cc2Cl)CC3)c1 (stereo not drawn) [Example 76, 3-[3-(2,4-dichlorophenoxy)-2,3-dihydro-1H-inden-5-yl]-N-[2-(methylsulfinyl)ethyl]benzamide] | 80
32 | O=C(NCCO)c1cccc(-c2ccc3c(c2)N(c2cc(Cl)cc(Cl)c2)CC3)c1 [Example 9, 3-[1-(3,5-dichlorophenyl)-2,3-dihydro-1H-indol-6-yl]-N-(2-hydroxyethyl)benzamide] | 59
33 | N#CCCNC(=O)c1cccc(-c2ccc3c(c2)C(c2ccc(Cl)cc2Cl)CC3)c1 (single isomer, unassigned; (-)) [Example 62, (−)-N-(2-cyanoethyl)-3-[3-(2,4-dichlorophenyl)-2,3-dihydro-1H-inden-5-yl]benzamide] | 81
